Source: patent US6559151B2, “6-(2-trifluoromethyl-phenyl)-triazolopyrimidines” (BASF Aktiengesellschaft, priority 2000, dated 2003)
Values after ≈ are worked out from the molar mass of the structure shown.

How the values were obtained:
Format in all cases: cell-based
Alternaria solani = assay: MIC serial dilution test, Alternaria solani; details: V8 juice medium, 6-12 days at 18-25° C., visual
Botrytis cinerea = assay: MIC serial dilution test, Botrytis cinerea; details: V8 juice medium, 6-12 days at 18-25° C., visual
Cochliobulus sativus = assay: MIC serial dilution test, Cochliobulus sativus; details: V8 juice medium, 6-12 days at 18-25° C., visual
[1] = test system: Magnaporthe grisea f. sp. Oryzae; details: total inhibition of mycelial growth; V8 juice medium; 6-12 days at 18-25° C.; visual
Rhizoctonia solani = assay: In vitro fungicidal activity against Rhizoctonia solani (mycelial growth inhibition rating); design: key: 0: None; 3: slight; 5: moderate; 7: severe; 9: complete; details: 25 ppm; 24-cell-well plates; 3-7 days of incubation
Protocol: C Evaluation of In vitro Fungicidal Activity against Rhizoctonia solani Test compounds are dissolved in acetone to give a concentration of 25 ppm and added to individual cell walls (24-cell-well-plates, Corning), which were previously filled with a suspension of ground fungal mycelium in a chemically defined growth medium. After 3-7 days of incubation, inhibition of mycelial growth is recorded using the following scale: The data obtained are shown in Table IV. Rating scale [table]

Row | Compound | MIC (Minimum Inhibitory Concentration) ALTEBO (Alternaria solani) [µg/mL] | MIC (Minimum Inhibitory Concentration) BOTRCI (Botrytis cinerea) | MIC (Minimum Inhibitory Concentration) COCHSA (Cochliobulus sativus) [µg/mL] | MIC (Minimum Inhibitory Concentration) PYRIOR [1] [µg/mL] | Rating (inhibition of mycelial growth) (Rhizoctonia solani)
1 | CC(C)Nc1c(-c2cc(F)ccc2C(F)(F)F)c(Cl)nc2ncnn12 [Compound I-1, [5-chloro-6-(5-fluoro-2-trifluoromethyl-phenyl)-[1,2,4]triazolo[1,5-α]pyrimidin-7-yl]-isopropyl-amine] | 100 (≈ 268 µM) | 50 µg/mL (≈ 134 µM) | 25 (≈ 66.9 µM) | 1.56 (≈ 4.17 µM) | 7
2 | Fc1ccc(C(F)(F)F)c(-c2c(Cl)nc3ncnn3c2NC2CCCC2)c1 [Compound I-2, [5-chloro-6-(5-fluoro-2-trifluoromethyl-phenyl)-[1,2,4]triazolo[1,5-α]pyrimidin-7-yl]-cyclopentyl-amine] | 3.13 (≈ 7.83 µM) | 25 µg/mL (≈ 62.5 µM) | 3.13 (≈ 7.83 µM) | 0.78 (≈ 1.95 µM) | 7
3 | Fc1ccc(C(F)(F)F)c(-c2c(Cl)nc3ncnn3c2NC2CC3CCC2C3)c1 (centres unmarked) [Compound I-3] | 0.78 (≈ 1.83 µM) | 25 µg/mL (≈ 58.7 µM) | 6.25 (≈ 14.7 µM) | 12.5 (≈ 29.4 µM) | 5
4 | CCN(CC)c1c(-c2cc(F)ccc2C(F)(F)F)c(Cl)nc2ncnn12 [Compound I-4, N-[5-chloro-6-(5-fluoro-2-trifluoromethyl-phenyl)-[1,2,4]triazolo[1,5-α]pyrimidin-7-yl]-N,N-diethyl-amine] | >100 | 25 µg/mL (≈ 64.5 µM) | 12.5 (≈ 32.2 µM) | 0.78 (≈ 2.01 µM) | 7
5 | CCC(C)Nc1c(-c2cc(F)ccc2C(F)(F)F)c(Cl)nc2ncnn12 (stereo not drawn) [Compound I-5, [5-chloro-6-(5-fluoro-2-trifluoromethyl-phenyl)-[1,2,4]triazolo[1,5-α]pyrimidin-7-yl]-N-(1-methyl-propyl)-amine] | 6.25 (≈ 16.1 µM) | 12.5 µg/mL (≈ 32.2 µM) | 12.5 (≈ 32.2 µM) | 0.78 (≈ 2.01 µM) | 7
6 | Fc1ccc(C(F)(F)F)c(-c2c(Cl)nc3ncnn3c2NCC(F)(F)F)c1 [Compound I-6] |  |  |  |  | 7
7 | Nc1c(-c2cc(F)ccc2C(F)(F)F)c(Cl)nc2ncnn12 [Compound I-7] |  |  |  |  | 0
8 | CC1CCN(c2c(-c3cc(F)ccc3C(F)(F)F)c(Cl)nc3ncnn23)CC1 [Example 5, 5-Chloro-6-(5-fluoro-2-trifluorome-thylphenyl)-7-(4-methyl-piperidin-1-yl)-[1,2,4]triazolo[1,5-α]pyrimidine] | 0.2 (≈ 0.483 µM) | 0,78 μg/ml | 0.78 (≈ 1.88 µM) | <0.05 | 7
